Where two headings read alike, the source gives them in different places.
How the values were obtained:
orexin-1 = orexin-1 (Homo sapiens (Human), UniProt O43613); test: Intracellular calcium measurement (FLIPR), CHO cells expressing human orexin-1 receptor, 3 nM orexin-A; assay type: cell-based; conditions: read-out: IC50 OX1
Description: (§1) In Vitro Assay: Intracellular Calcium Measurements:
(§2) Chinese hamster ovary (CHO) cells expressing the human orexin-1 receptor and the human orexin-2 receptor, respectively, are grown in culture medium (Ham F-12 with L-Glutamine) containing 300 μg/mL G418, 100 U/mL penicillin, 100 μg/mL streptomycin and 10% heat inactivated fetal calf serum (FCS). The cells are seeded at 20,000 cells/well into 384-well black clear bottom sterile plates (Greiner). The seeded plates are incubated overnight at 37° C. in 5% CO2.
(§3) Human orexin-A as an agonist is prepared as 1 mM stock solution in MeOH: water (1:1), diluted in HBSS containing 0.1% bovine serum albumin (BSA), NaHCO3: 0.375 g/L and 20 mM HEPES for use in the assay at a final concentration of 3 nM.
(§4) Antagonists are prepared as 10 mM stock solution in DMSO, then diluted in 384-well plates using DMSO followed by a transfer of the dilutions into in HBSS containing 0.1% bovine serum albumin (BSA), NaHCO3: 0.375 g/L and 20 mM HEPES. On the day of the assay, 50 μL of staining buffer (HBSS containing 1% FCS, 20 mM HEPES, NaHCO3: 0.375 g/L, 5 mM probenecid (Sigma) and 3 μM of the fluorescent calcium indicator fluo-4 AM (1 mM stock solution in DMSO, containing 10% pluronic) is added to each well. The 384-well cell-plates are incubated for 50 min at 37° C. in 5% CO2 followed by equilibration at rt for 30 min before measurement.
(§5) Within the Fluorescent Imaging Plate Reader (FLIPR Tetra, Molecular Devices), antagonists are added to the plate in a volume of 10 μL/well, incubated for 120 min and finally 10 μL/well of agonist is added. Fluorescence is measured for each well at 1 second intervals, and the height of each fluorescence peak is compared to the height of the fluorescence peak induced by 3 nM orexin-A with vehicle in place of antagonist. […] Optimized conditions were achieved by adjustment of pipetting speed and cell splitting regime. The calculated IC50 values may fluctuate depending on the daily cellular assay performance. Fluctuations of this kind are known to those skilled in the art.

human orexin-2 receptor = human orexin-2 receptor (Homo sapiens (Human), UniProt O43614); test: Intracellular calcium measurement (FLIPR), CHO cells expressing human orexin-2 receptor, 3 nM orexin-A; assay type: cell-based; conditions: read-out: IC50 OX2
Description: as §1, §2, §3, §4, §5

[1] = CHO cells expressing human orexin-1 receptor, FLIPR, 3 nM orexin-A, geometric mean if determined several times
[2] = CHO cells expressing human orexin-2 receptor, FLIPR, 3 nM orexin-A, geometric mean if determined several times

human orexin-2 receptor, sequence (O43614 whole entry): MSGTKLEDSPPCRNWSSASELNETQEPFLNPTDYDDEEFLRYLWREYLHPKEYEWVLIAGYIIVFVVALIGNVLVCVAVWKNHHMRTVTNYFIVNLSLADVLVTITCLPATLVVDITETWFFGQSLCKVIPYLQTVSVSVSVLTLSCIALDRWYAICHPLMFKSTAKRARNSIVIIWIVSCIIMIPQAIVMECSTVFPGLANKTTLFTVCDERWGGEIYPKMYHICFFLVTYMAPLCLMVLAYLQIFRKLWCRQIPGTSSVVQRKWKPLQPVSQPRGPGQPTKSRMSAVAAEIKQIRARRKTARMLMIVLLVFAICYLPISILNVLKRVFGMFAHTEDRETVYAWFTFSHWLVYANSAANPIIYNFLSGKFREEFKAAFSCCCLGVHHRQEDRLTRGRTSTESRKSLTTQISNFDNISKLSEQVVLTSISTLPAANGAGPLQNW
orexin-1, sequence (O43613 whole entry): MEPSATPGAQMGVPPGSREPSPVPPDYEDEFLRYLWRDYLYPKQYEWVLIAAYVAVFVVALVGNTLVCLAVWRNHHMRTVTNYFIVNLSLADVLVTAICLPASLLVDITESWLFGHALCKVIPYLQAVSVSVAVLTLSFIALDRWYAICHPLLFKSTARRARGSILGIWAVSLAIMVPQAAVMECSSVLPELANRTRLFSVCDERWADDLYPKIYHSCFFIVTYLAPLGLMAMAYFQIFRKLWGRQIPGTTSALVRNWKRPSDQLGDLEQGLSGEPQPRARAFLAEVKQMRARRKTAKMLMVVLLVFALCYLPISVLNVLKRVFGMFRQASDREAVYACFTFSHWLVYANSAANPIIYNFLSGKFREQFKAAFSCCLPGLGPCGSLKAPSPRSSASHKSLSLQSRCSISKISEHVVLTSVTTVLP

IC50 (orexin-1; [1]) | IC50 (human orexin-2 receptor; [2]) | Structure (SMILES) | IC50 (human orexin-2 receptor) | IC50 (orexin-1)
0.302 µM | 0.155 µM | COc1cc(-c2noc([C@@H]3CCCN3C(=O)c3cc(C)ccc3-n3nccn3)n2)cc(C)n1 [compound 66, {(S)-2-[3-(2-Methoxy-6-methyl-pyridin-4-yl)-[1,2,4]oxadiazol-5-yl]-pyrrolidin-1-yl}-(5-methyl-2-[1,2,3]triazol-2-yl-phenyl)-methanone] |  | 
0.163 µM | 0.24 µM | COc1ccccc1-c1noc([C@@H]2CCCN2C(=O)c2ccc(C)cc2-n2nccn2)n1 [compound 229, {(S)-2-[3-(2-Methoxy-phenyl)-[1,2,4]oxadiazol-5-yl]-pyrrolidin-1-yl}-(4-methyl-2-[1,2,3]triazol-2-yl-phenyl)-methanone] |  | 
2.75 µM | 1.07 µM | Cc1ccc(-n2nccn2)c(C(=O)N2CCC[C@H]2c2nc(-c3c[nH]c4cccc(C)c34)no2)c1 [compound 79, {(S)-2-[3-(4-Methyl-1H-indol-3-yl)-[1,2,4]oxadiazol-5-yl]-pyrrolidin-1-yl}-(5-methyl-2-[1,2,3]triazol-2-yl-phenyl)-methanone] |  | 
0.306 µM | 0.018 µM | Cc1c(F)cccc1-c1noc([C@@H]2CCCN2C(=O)c2ccccc2-n2nccn2)n1 [compound 244, {(S)-2-[3-(3-Fluoro-2-methyl-phenyl)-[1,2,4]oxadiazol-5-yl]-pyrrolidin-1-yl}-(2-[1,2,3]triazol-2-yl-phenyl)-methanone] |  | 
0.009 µM | 0.006 µM | COc1ccc(-c2ccccc2)c(C(=O)N2CCC[C@H]2c2nc(-c3cccc(Cl)c3C)no2)c1 [compound 101, {(S)-2-[3-(3-Chloro-2-methyl-phenyl)-[1,2,4]oxadiazol-5-yl]-pyrrolidin-1-yl}-(4-methoxy-biphenyl-2-yl)-methanone] |  | 
0.439 µM | 0.07 µM | Cc1ccc(-n2nccn2)c(C(=O)N2CCC[C@H]2c2nc(-c3ccccc3CCO)no2)c1 [Example 87, ((S)-2-{3-[2-(2-Hydroxy-ethyl)-phenyl]-[1,2,4]oxadiazol-5-yl}-pyrrolidin-1-yl)-(5-methyl-2-[1,2,3]triazol-2-yl-phenyl)-methanone] |  | 
0.062 µM | 0.009 µM | Cc1ccc(-n2nccn2)c(C(=O)N2CCC[C@H]2c2nc(-c3ccccc3OC(F)F)no2)c1 [compound 33, {(S)-2-[3-(2-Difluoromethoxy-phenyl)-[1,2,4]oxadiazol-5-yl]-pyrrolidin-1-yl}-(5-methyl-2-[1,2,3]triazol-2-yl-phenyl)-methanone] |  | 
0.023 µM | 0.008 µM | CCOc1ncccc1-c1nnc([C@@H]2CCCN2C(=O)c2cc(Cl)c(C)cc2-n2nccn2)[nH]1 [compound 487, (5-Chloro-4-methyl-2-[1,2,3]triazol-2-yl-phenyl)-{(S)-2-[5-(2-ethoxy-pyridin-3-yl)-4H-[1,2,4]triazol-3-yl]-pyrrolidin-1-yl}-methanone] |  | 
 |  | Cc1ccc(C)c(-c2nc([C@@H]3CCCN3C(=O)c3cc(Cl)ccc3-n3nccn3)no2)c1 [compound 396] | 0.015 µM | 0.134 µM
0.325 µM | 0.03 µM | COc1cccc(-c2nc([C@@H]3CCCN3C(=O)c3cc(C)ccc3-n3nccn3)no2)c1C [compound 359, {(S)-2-[5-(3-Methoxy-2-methyl-phenyl)-[1,2,4]oxadiazol-3-yl]-pyrrolidin-1-yl}-(5-methyl-2-[1,2,3]triazol-2-yl-phenyl)-methanone] |  | 
1.48 µM | 0.297 µM | Cc1c(F)cccc1-c1noc([C@@H]2CCCN2C(=O)c2cc(C#N)ccc2-n2nccn2)n1 [compound 277, 3-{(S)-2-[3-(3-Fluoro-2-methyl-phenyl)-[1,2,4]oxadiazol-5-yl]-pyrrolidine-1-carbonyl}-4-[1,2,3]triazol-2-yl-benzonitrile] |  | 
0.373 µM | 0.04 µM | Cc1ccc(-n2nccn2)c(C(=O)N2CCC[C@H]2c2nc(-c3ccccc3)no2)c1 [Example 1, (5-Methyl-2-[1,2,3]triazol-2-yl-phenyl)-[(S)-2-(3-phenyl-[1,2,4]oxadiazol-5-yl)-pyrrolidin-1-yl]-methanone] |  | 
0.309 µM | 0.019 µM | Cc1ccc(-c2noc([C@@H]3CCCN3C(=O)c3cc(C)ccc3-n3nccn3)n2)c(C)c1 [compound 81, {(S)-2-[3-(2,4-Dimethyl-phenyl)-[1,2,4]oxadiazol-5-yl]-pyrrolidin-1-yl}-(5-methyl-2-[1,2,3]triazol-2-yl-phenyl)-methanone] |  | 
0.047 µM | 0.363 µM | Cc1ccc(-n2nccn2)c(C(=O)N2CCC[C@H]2c2ncn(-c3ccccc3)n2)c1 [Example 535, (5-Methyl-2-[1,2,3]triazol-2-yl-phenyl)-[(S)-2-(1-phenyl-1H-[1,2,4]triazol-3-yl)-pyrrolidin-1-yl]-methanone] |  | 
0.258 µM | 0.081 µM | Cc1ccc(C(=O)N2CCC[C@H]2c2cc(-c3ccccc3OC(F)(F)F)n[nH]2)c(-n2nccn2)c1 [compound 533, (4-Methyl-2-[1,2,3]triazol-2-yl-phenyl)-{(S)-2-[5-(2-trifluoromethoxy-phenyl)-2H-pyrazol-3-yl]-pyrrolidin-1-yl}-methanone] |  | 
0.263 µM | 0.025 µM | COc1c(F)cccc1-c1noc([C@@H]2CCCN2C(=O)c2ccccc2-n2nccn2)n1 [compound 193, {(S)-2-[3-(3-Fluoro-2-methoxy-phenyl)-[1,2,4]oxadiazol-5-yl]-pyrrolidin-1-yl}-(2-[1,2,3]triazol-2-yl-phenyl)-methanone] |  | 
0.964 µM | 0.6 µM | CCOc1ncccc1-c1noc([C@@H]2CCCN2C(=O)c2cc(F)cc(C)c2-n2nccn2)n1 [compound 225, {(S)-2-[3-(2-Ethoxy-pyridin-3-yl)-[1,2,4]oxadiazol-5-yl]-pyrrolidin-1-yl}-(5-fluoro-3-methyl-2-[1,2,3]triazol-2-yl-phenyl)-methanone] |  | 
0.02 µM | 0.003 µM | Cc1cc(C(=O)N2CCC[C@H]2c2nc(-c3ccccc3OC(F)F)no2)c(-n2nccn2)cc1C [compound 188, {(S)-2-[3-(2-Difluoromethoxy-phenyl)-[1,2,4]oxadiazol-5-yl]-pyrrolidin-1-yl}-(4,5-dimethyl-2-[1,2,3]triazol-2-yl-phenyl)-methanone] |  | 
 |  | Cc1c(Cl)cccc1-c1noc([C@@H]2CCCN2C(=O)c2cccc(F)c2-n2nccn2)n1 [compound 114] | 0.083 µM | 1.08 µM

Structure (SMILES) | IC50 (orexin-1; [1]) | IC50 (human orexin-2 receptor; [2]) | IC50 (human orexin-2 receptor) | IC50 (orexin-1)
COc1c(F)cccc1-c1noc([C@@H]2CCCN2C(=O)c2ccc(Cl)cc2-n2nccn2)n1 [compound 204] | 0.065 µM |  | 0.01 µM | 
Cc1nc(C(=O)N2CCC[C@H]2c2nc(-c3cccc(Cl)c3C)no2)c(-c2ccc(F)cc2)s1 [compound 125] | 0.353 µM | 0.08 µM |  | 
Cc1c(Cl)cccc1-c1noc([C@@H]2CCCN2C(=O)c2cc(Cl)ccc2-n2nccn2)n1 [compound 264] | 0.165 µM |  | 0.014 µM | 
Cc1ccc(-n2nccn2)c(C(=O)N2CCC[C@H]2c2nc(-c3cccc(Cl)c3C)no2)c1 [compound 23] | 0.04 µM | 0.007 µM |  | 
COc1cc(C(=O)N2CCC[C@H]2c2cc(-c3ccccc3OC(F)(F)F)on2)c(-n2nccn2)cc1Cl [compound 437] |  | 0.015 µM |  | 0.062 µM
CCOc1ncccc1-c1nnc([C@@H]2CCCN2C(=O)c2ccc(Cl)cc2-n2nccn2)[nH]1 [compound 481] | 0.026 µM | 0.021 µM |  | 
Cc1ccc(-n2nccn2)c(C(=O)N2CCC[C@@]2(C)c2nnc(-c3cccc(Cl)c3C)[nH]2)c1 [compound 550] | 0.272 µM | 0.178 µM |  | 
Cc1noc(-c2ccccc2C(=O)N2CCC[C@H]2c2nc(-c3ccccc3OC(F)(F)F)no2)n1 [compound 134] | 0.274 µM | 0.219 µM |  | 
Cc1ccc(-n2nccn2)c(C(=O)N2CCC[C@H]2c2nc(-c3ccnc(Cl)c3)no2)c1 [compound 73] | 3.48 µM | 1.16 µM |  | 
CCOc1ncccc1-c1nnc([C@@H]2CCCN2C(=O)c2cc(OC)c(Cl)cc2-n2nccn2)[nH]1 [compound 478] | 0.027 µM | 0.011 µM |  | 
O=C(c1cc(Cl)ccc1-n1nccn1)N1CCC[C@H]1c1nc(-c2ccccc2OC(F)(F)F)no1 [compound 143] | 0.047 µM |  | 0.034 µM | 
CCOc1c(F)cccc1-c1nc([C@@H]2CCCN2C(=O)c2cc(OC)c(Cl)cc2-n2nccn2)no1 [compound 369] | 0.015 µM | 0.002 µM |  | 
COc1cc(C(=O)N2CCC[C@H]2c2nc(-c3cccc(Cl)c3C)no2)c(-n2cccn2)cc1C [compound 105] |  | 0.008 µM |  | 0.133 µM

Reference: patent US9493446B2, “Orexin receptor antagonists which are [ortho bi-(hetero-)aryl]-[2-(meta bi-(hetero-)aryl)-pyrrolidin-1-yl]-methanone derivatives” (Actelion Pharmaceuticals Ltd, priority 2012, dated 2016)
